Test results as given in patent publication US20060252807A1, “Novel ortho-terphenyl inhibitors of p38 kinase and methods of treating inflammatory disorders” (Kalypsys, Inc., priority 2005, published 2006).
pIC50: −log10 of the molar value.

molecular target: T1, active p38 alpha enzyme (Upstate Biotechnology) (Homo sapiens, UniProt Q16539); test: p38α biochemical assay (ATP turnover, luminescent detection, Cambrex PKlight); conditions: p38α biochemical assay, Table 1 Biological Activity
T1 construct: purchased Upstate Biotechnology
Summary of the method: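 p38α + MapkapK2 (whole protein substrate) + 1.4 uM ATP final; Tris/MOPS buffer with MgCl2, CaCl2, EGTA, EDTA, glycerol, β-ME, BSA; 2 h at 30C; luminescent detection of remaining ATP.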

T1 sequence (Q16539 whole entry): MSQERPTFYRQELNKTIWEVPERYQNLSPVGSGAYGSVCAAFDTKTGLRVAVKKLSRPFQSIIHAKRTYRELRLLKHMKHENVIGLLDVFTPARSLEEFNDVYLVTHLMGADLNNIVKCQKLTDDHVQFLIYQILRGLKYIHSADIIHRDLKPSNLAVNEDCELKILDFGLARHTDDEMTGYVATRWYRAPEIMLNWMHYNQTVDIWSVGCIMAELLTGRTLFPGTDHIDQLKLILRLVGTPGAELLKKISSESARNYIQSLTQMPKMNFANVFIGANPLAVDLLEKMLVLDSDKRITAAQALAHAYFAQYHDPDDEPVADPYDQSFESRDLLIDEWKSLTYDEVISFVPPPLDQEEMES

| Structure (SMILES) | pIC50 |
| --- | --- |
| CC(C)NC(=O)c1csc(-c2oc(CNC(=O)COc3ccccc3C=O)nc2-c2ccc(F)cc2)n1 [Example 212] | < 6.00 |
| CC(=O)Oc1ccc(C(=O)NCc2nc(-c3ccc(F)cc3)c(-c3nc(C(=O)NC(C)C)cs3)o2)cc1 [Example 213] | < 6.00 |
| COC(=O)c1ccc(C(=O)NCc2nc(-c3ccc(F)cc3)c(-c3nc(C(=O)NC(C)C)cs3)o2)cc1 [Example 214] | < 6.00 |
| CC(=O)Oc1cccc(C(=O)NCc2nc(-c3ccc(F)cc3)c(-c3nc(C(=O)NC(C)C)cs3)o2)c1 [Example 215] | < 6.00 |
| CC(=O)Oc1ccccc1C(=O)NCc1nc(-c2ccc(F)cc2)c(-c2nc(C(=O)NC(C)C)cs2)o1 [Example 216] | < 6.00 |
| CC(C)NC(=O)c1csc(-c2oc(CNC(=O)Cc3ccc4c(c3)OCO4)nc2-c2ccc(F)cc2)n1 [Example 217] | < 6.00 |
| CCCOc1ccc(C(=O)NCc2nc(-c3ccc(F)cc3)c(-c3nc(C(=O)NC(C)C)cs3)o2)cc1 [Example 218] | < 6.00 |
| CC(C)NC(=O)c1csc(-c2oc(CNC(=O)c3ccc(OC(C)C)cc3)nc2-c2ccc(F)cc2)n1 [Example 219] | < 6.00 |
| Cc1c(C(=O)NCc2nc(-c3ccc(F)cc3)c(-c3nc(C(=O)NC(C)C)cs3)o2)cccc1[N+](=O)[O-] [Example 223] | < 6.00 |
| COc1ccc(OC)c(C(=O)NCc2nc(-c3ccc(F)cc3)c(-c3nc(C(=O)NC(C)C)cs3)o2)c1 [Example 224] | < 6.00 |
| COc1ccc(C(=O)NCc2nc(-c3ccc(F)cc3)c(-c3nc(C(=O)NC(C)C)cs3)o2)c(OC)c1 [Example 225] | < 6.00 |
| COc1cc(OC)cc(C(=O)NCc2nc(-c3ccc(F)cc3)c(-c3nc(C(=O)NC(C)C)cs3)o2)c1 [Example 227] | < 6.00 |
| COc1cccc(C(=O)NCc2nc(-c3ccc(F)cc3)c(-c3nc(C(=O)NC(C)C)cs3)o2)c1OC [Example 228] | < 6.00 |
| Cc1ccc(SCC(=O)NCc2nc(-c3ccc(F)cc3)c(-c3nc(C(=O)NC(C)C)cs3)o2)cc1 [Example 229] | < 6.00 |
| CC(C)NC(=O)c1csc(-c2oc(CNC(=O)/C=C/c3ccccc3Cl)nc2-c2ccc(F)cc2)n1 [Example 231] | < 6.00 |
| CC(C)NC(=O)c1csc(-c2oc(CNC(=O)c3ccc([N+](=O)[O-])c(O)c3)nc2-c2ccc(F)cc2)n1 [Example 232] | < 6.00 |
| CC(C)NC(=O)c1csc(-c2oc(CNC(=O)c3cc([N+](=O)[O-])ccc3F)nc2-c2ccc(F)cc2)n1 [Example 235] | < 6.00 |
| COc1ccc(Cl)cc1C(=O)NCc1nc(-c2ccc(F)cc2)c(-c2nc(C(=O)NC(C)C)cs2)o1 [Example 238] | < 6.00 |

| Structure (SMILES) | pIC50 |
| --- | --- |
| COc1cc(Cl)ccc1C(=O)NCc1nc(-c2ccc(F)cc2)c(-c2nc(C(=O)NC(C)C)cs2)o1 [Example 239] | < 6.00 |
| COc1cc(C(=O)NCc2nc(-c3ccc(F)cc3)c(-c3nc(C(=O)NC(C)C)cs3)o2)cc(Cl)n1 [Example 241] | < 6.00 |
| CC(C)NC(=O)c1csc(-c2oc(CNC(=O)c3c(O)ccc4ccccc34)nc2-c2ccc(F)cc2)n1 [Example 243] | < 6.00 |
| CC(C)NC(=O)c1csc(-c2oc(CNC(=O)c3cc4ccccc4cc3O)nc2-c2ccc(F)cc2)n1 [Example 244] | < 6.00 |
| CC(C)NC(=O)c1csc(-c2oc(CNC(=O)c3ccc4ccccc4c3O)nc2-c2ccc(F)cc2)n1 [Example 245] | < 6.00 |
| CC(C)NC(=O)c1csc(-c2oc(CNC(=O)C(C)NC(=O)OC(C)(C)C)nc2-c2ccc(F)cc2)n1 (stereo not shown) [Example 247] | < 6.00 |
| CC(C)NC(=O)c1csc(-c2oc(CNC(=O)C(C)NC(=O)OC(C)(C)C)nc2-c2ccc(F)cc2)n1 (stereo not shown) [Example 248] | < 6.00 |
| CC(C)NC(=O)c1csc(-c2oc(CNC(=O)c3cc(F)c(F)c(O)c3F)nc2-c2ccc(F)cc2)n1 [Example 254] | < 6.00 |
| CC(C)NC(=O)c1csc(-c2oc(CNC(=O)/C=C/c3ccc4c(c3)OCO4)nc2-c2ccc(F)cc2)n1 [Example 255] | < 6.00 |
| Cc1ccc(C(=O)CCC(=O)NCc2nc(-c3ccc(F)cc3)c(-c3nc(C(=O)NC(C)C)cs3)o2)cc1 [Example 256] | < 6.00 |
| CCCCCc1ccc(C(=O)NCc2nc(-c3ccc(F)cc3)c(-c3nc(C(=O)NC(C)C)cs3)o2)cc1 [Example 257] | < 6.00 |
| CC(C)NC(=O)c1csc(-c2oc(CNC(=O)c3cc(F)c(Cl)cc3F)nc2-c2ccc(F)cc2)n1 [Example 259] | < 6.00 |
| CCCCOc1ccc(C(=O)NCc2nc(-c3ccc(F)cc3)c(-c3nc(C(=O)NC(C)C)cs3)o2)cc1 [Example 263] | < 6.00 |
| CC(C)NC(=O)c1csc(-c2oc(CNC(=O)c3ccccc3-c3ccccc3)nc2-c2ccc(F)cc2)n1 [Example 267] | < 6.00 |
| CC(C)NC(=O)c1csc(-c2oc(CNC(=O)c3cccc(Br)c3)nc2-c2ccc(F)cc2)n1 [Example 268] | < 6.00 |
| CC(C)NC(=O)c1csc(-c2oc(CNC(=O)c3ccc(Br)cc3)nc2-c2ccc(F)cc2)n1 [Example 269] | < 6.00 |
| CC(C)NC(=O)c1csc(-c2oc(CNC(=O)c3ccc(Cl)c([N+](=O)[O-])c3)nc2-c2ccc(F)cc2)n1 [Example 274] | < 6.00 |
| CC(C)NC(=O)c1csc(-c2oc(CNC(=O)c3cccc(Br)n3)nc2-c2ccc(F)cc2)n1 [Example 276] | < 6.00 |

Second part, the molecule after the results:

| pIC50 | Structure (SMILES) |
| --- | --- |
| < 6.00 | CC(=O)Nc1cccc(C(=O)NCc2nc(-c3ccc(F)cc3)c(-c3nc(C(=O)NC(C)C)cs3)o2)c1 [Example 211] |
| ≥ 6.00 | Cc1cccc([N+](=O)[O-])c1C(=O)NCc1nc(-c2ccc(F)cc2)c(-c2nc(C(=O)NC(C)C)cs2)o1 [Example 220] |
| ≥ 6.00 | Cc1cccc(C(=O)NCc2nc(-c3ccc(F)cc3)c(-c3nc(C(=O)NC(C)C)cs3)o2)c1[N+](=O)[O-] [Example 221] |
| ≥ 6.00 | Cc1ccc([N+](=O)[O-])c(C(=O)NCc2nc(-c3ccc(F)cc3)c(-c3nc(C(=O)NC(C)C)cs3)o2)c1 [Example 222] |
| ≥ 6.00 | COc1cccc(OC)c1C(=O)NCc1nc(-c2ccc(F)cc2)c(-c2nc(C(=O)NC(C)C)cs2)o1 [Example 226] |
| ≥ 6.00 | CC(C)NC(=O)c1csc(-c2oc(CNC(=O)/C=C/c3ccc(Cl)cc3)nc2-c2ccc(F)cc2)n1 [Example 230] |
| ≥ 6.00 | CC(C)NC(=O)c1csc(-c2oc(CNC(=O)c3cc(O)ccc3[N+](=O)[O-])nc2-c2ccc(F)cc2)n1 [Example 233] |
| ≥ 6.00 | CC(C)NC(=O)c1csc(-c2oc(CNC(=O)c3cc([N+](=O)[O-])ccc3O)nc2-c2ccc(F)cc2)n1 [Example 234] |
| ≥ 6.00 | CC(C)NC(=O)c1csc(-c2oc(CNC(=O)c3cc(F)ccc3[N+](=O)[O-])nc2-c2ccc(F)cc2)n1 [Example 236] |
| ≥ 6.00 | CC(C)NC(=O)c1csc(-c2oc(CNC(=O)c3ccc(F)c([N+](=O)[O-])c3)nc2-c2ccc(F)cc2)n1 [Example 237] |
| ≥ 6.00 | CC(C)NC(=O)c1csc(-c2oc(CNC(=O)Cc3ccc(O)c(Cl)c3)nc2-c2ccc(F)cc2)n1 [Example 240] |
| ≥ 6.00 | CC(C)NC(=O)c1csc(-c2oc(CNC(=O)c3ccc4cc(O)ccc4c3)nc2-c2ccc(F)cc2)n1 [Example 242] |
| ≥ 6.00 | CC(C)NC(=O)c1csc(-c2oc(CNC(=O)c3ccc4cccc(O)c4n3)nc2-c2ccc(F)cc2)n1 [Example 246] |
| ≥ 6.00 | CC(C)NC(=O)c1csc(-c2oc(CNC(=O)c3ccccc3C(F)(F)F)nc2-c2ccc(F)cc2)n1 [Example 249] |
| ≥ 6.00 | CC(C)NC(=O)c1csc(-c2oc(CNC(=O)CCc3nc4ccccc4[nH]3)nc2-c2ccc(F)cc2)n1 [Example 250] |
| ≥ 6.00 | CC(C)NC(=O)c1csc(-c2oc(CNC(=O)c3cccc(Cl)c3Cl)nc2-c2ccc(F)cc2)n1 [Example 251] |

| pIC50 | Structure (SMILES) |
| --- | --- |
| ≥ 6.00 | CC(C)NC(=O)c1csc(-c2oc(CNC(=O)c3ccc(Cl)cc3Cl)nc2-c2ccc(F)cc2)n1 [Example 252] |
| ≥ 6.00 | CC(C)NC(=O)c1csc(-c2oc(CNC(=O)c3cc(Cl)ccc3Cl)nc2-c2ccc(F)cc2)n1 [Example 253] |
| ≥ 6.00 | CC(C)NC(=O)c1csc(-c2oc(CNC(=O)c3cc(F)c(F)cc3Cl)nc2-c2ccc(F)cc2)n1 [Example 258] |
| ≥ 6.00 | CCN(CC)c1ccc(C(=O)NCc2nc(-c3ccc(F)cc3)c(-c3nc(C(=O)NC(C)C)cs3)o2)cc1 [Example 260] |
| ≥ 6.00 | COc1cc(/C=C/C(=O)NCc2nc(-c3ccc(F)cc3)c(-c3nc(C(=O)NC(C)C)cs3)o2)ccc1O [Example 261] |
| ≥ 6.00 | COc1ccc(/C=C/C(=O)NCc2nc(-c3ccc(F)cc3)c(-c3nc(C(=O)NC(C)C)cs3)o2)cc1O [Example 262] |
| ≥ 6.00 | CC(C)NC(=O)c1csc(-c2oc(CNC(=O)c3cc4cc(Cl)ccc4o3)nc2-c2ccc(F)cc2)n1 [Example 264] |
| ≥ 6.00 | COc1ccc([N+](=O)[O-])c(C(=O)NCc2nc(-c3ccc(F)cc3)c(-c3nc(C(=O)NC(C)C)cs3)o2)c1 [Example 265] |
| ≥ 6.00 | COc1cc(C(=O)NCc2nc(-c3ccc(F)cc3)c(-c3nc(C(=O)NC(C)C)cs3)o2)cc(OC)c1O [Example 266] |
| ≥ 6.00 | CC(C)NC(=O)c1csc(-c2oc(CNC(=O)c3cccc(Cl)c3[N+](=O)[O-])nc2-c2ccc(F)cc2)n1 [Example 270] |
| ≥ 6.00 | CC(C)NC(=O)c1csc(-c2oc(CNC(=O)c3cc([N+](=O)[O-])ccc3Cl)nc2-c2ccc(F)cc2)n1 [Example 271] |
| ≥ 6.00 | CC(C)NC(=O)c1csc(-c2oc(CNC(=O)c3ccc([N+](=O)[O-])cc3Cl)nc2-c2ccc(F)cc2)n1 [Example 272] |
| ≥ 6.00 | CC(C)NC(=O)c1csc(-c2oc(CNC(=O)c3ccc(Cl)cc3[N+](=O)[O-])nc2-c2ccc(F)cc2)n1 [Example 273] |
| ≥ 6.00 | CC(C)NC(=O)c1csc(-c2oc(CNC(=O)c3cc(Cl)ccc3[N+](=O)[O-])nc2-c2ccc(F)cc2)n1 [Example 275] |
| ≥ 6.00 | CC(C)NC(=O)c1csc(-c2oc(CNC(=O)c3cncc(Br)c3)nc2-c2ccc(F)cc2)n1 [Example 277] |
